From US4698332A, “Expectorant” (Mect Corporation, priority 1984, dated 1987)
Where a name gives a salt, the structure may show the parent alone. Read-outs that look alike come from different tables or passages of the source.

Legend:
palatine mucosa of frog [1] = test: Ciliary movement of frog palatine mucosa, particle transport method (Example 3, Tables 1-3); type: cell-based, bull frog; settings: for activation at 100 µg/mL / activation at 10 µg/mL: control = 0
Procedure: Bull frogs (furnished by Saitama Test Animal) weighing 300 to 450 g were used regardless of sex.
N-acetylneuraminic acid and calcium salt of N-acetylneuraminic acid (provided by Kanto Ishiseiyaku Kabushiki Kaisha), as well as acetylcholine chloride (furnished by Sigma Kabushiki Kaisha) were used as the test substances.
(§1) Mucociliary transport was measured by the particle transport method. After decapitation of a frog, the surface of the palatine mucosa was separated with minimized damage and of fixed to a cork plate in a Petri dish which was then filled with 20 ml of Ringer's solution (trishydrochloric acid). The palatine mucosa was left in this state for 30 minutes before the commencement of measurement. For measurement, the Ringer's solution was removed and fine pieces of cork (capable of passing pharmaceutical sieve No. 5 but not capable of passing No. 6) were placed on the surface of the palatine mucosa, and the time (in seconds) required for the cork piece to move 1 cm was measured. The duration of movement, i.e., moving speed, was measured also in the state immediately after the removal of the Ringer's solution or pharmaceutical solution.

palatine mucosa of frog [2] = test: Mucociliary transport of frog palatine mucosa (Example 8, Table 6); type: cell-based; settings: mean ± SD, over 20.0% significant, read-out: Acceleration (mucociliary transport); for activation at 100 µg/mL: 10^-1 mg/ml; for activation at 10 µg/mL: 10^-2 mg/ml; for activation at 1 µg/mL: 10^-3 mg/ml; for activation at 0.1 µg/mL: 10^-4 mg/ml
Procedure: as §1

[3] = system: ciliated cells from human airway and frog palate; test: Rotation of ciliated cell groups (Example 4); type: cell-based
Text: Using ciliated cells from human airway and frog palate, rotation of cell groups due to ciliary beat was observed before and after application of N-acetylneuraminic acid and calcium salt of N-acetylneuraminic acid, in order to confirm the effect of these agents on the cilitated cells.
(§2) Human ciliated cells were collected from a normal trachea by means of a branchoscope, the ciliated cells being separated by rubbing the bronchus while observing through the branchoscope, while the collection of frog cilitated cells was conducted by rubbing the palatine mucosta, without being specially careful. […] The groups of cells were transferred to a cover slip and one drop of chicken plasma (prepared by Difco Company) and one drop of 50% chicken embryo extract were added to the cells, thus forming clots. The rotary motion in the clots was recorded by means of a video recorder and the number of rotations per minute was measured.

ciliated cell = test: Rotating ciliated explant (Example 9, Table 7); type: cell-based; settings: for activation at 10 µg/mL: 10^-2 mg/ml (terbutaline 1-^-2 [sic]); for activation at 10 µg/mL / activation at 1 µg/mL / activation at 0.1 µg/mL: mean ± SD, > 20.0 significant, read-out: Acceleration (rotating ciliated explant); for activation at 1 µg/mL: 10^-3 mg/ml; for activation at 0.1 µg/mL: 10^-4 mg/ml
Procedure: as §2, with “measured. The agents were dissolved in the Medium 199 and were injected through a tube attached to a rose chamber. The state of rotary motion 5 minutes, 10 minutes and 15 minutes after the injection were recorded by means of a video recorder, and the number of revolutions was measured.” for “measured.”
A test was conducted to examine the above-mentioned effect by using sodium salt of N-Acetylneuraminic Acid, in accordance with the same testing method as that of Example 2.

CC(=O)N[C@H]1[C@H]([C@H](O)[C@H](O)CO)OC(O)(C(=O)O)C[C@@H]1O (stereo partly shown) [calcium salt of N-acetylneuraminic acid]
Movement (palatine mucosa of frog [1]; 10^-4 g/ml, frog number 1): 23.0 s/cm
activation at 100 µg/mL (palatine mucosa of frog [1]; 10^-4 g/ml, frog number 1, read-out: Acceleration): 39%
Movement (palatine mucosa of frog [1]; 10^-4 g/ml, frog number 2): 29.0 s/cm
activation at 100 µg/mL (palatine mucosa of frog [1]; 10^-4 g/ml, frog number 2, read-out: Acceleration): 28.7%
Movement (palatine mucosa of frog [1]; 10^-4 g/ml, frog number 3): 19.7 s/cm
activation at 100 µg/mL (palatine mucosa of frog [1]; 10^-4 g/ml, frog number 3, read-out: Acceleration): 46.8%
Movement (palatine mucosa of frog [1]; 10^-5 g/ml, frog number 1): 25.0 s/cm
activation at 10 µg/mL (palatine mucosa of frog [1]; 10^-5 g/ml, frog number 1, read-out: Acceleration): 33.7%
Movement (palatine mucosa of frog [1]; 10^-5 g/ml, frog number 2): 29.3 s/cm
activation at 10 µg/mL (palatine mucosa of frog [1]; 10^-5 g/ml, frog number 2, read-out: Acceleration): 28%
Movement (palatine mucosa of frog [1]; 10^-5 g/ml, frog number 3): 24.3 s/cm
activation at 10 µg/mL (palatine mucosa of frog [1]; 10^-5 g/ml, frog number 3, read-out: Acceleration): 34.2%
Effect on ciliary movement of palatine mucosa (palatine mucosa of frog [1]; Tables 1 and 3): acceleration of the ciliary movement of palatine mucosa in a certain dose-dependency
Ciliary movement promoting effect compared with acetylcholine (palatine mucosa of frog [1]; acetylcholine control at 10^-5 and 10^-4): substantially the same ciliary movement promoting effect as the acetylcholine

CC(=O)OCC[N+](C)(C)C.[Cl-] [acetylcholine, acetylcholine chloride, reference compound]
activation at 100 µg/mL (palatine mucosa of frog [2]; 5 min, 5 min after applied): 22.8 ± 26.1%
activation at 10 µg/mL (palatine mucosa of frog [2]; 5 min, 5 min after applied): 17.5 ± 14.3%
activation at 1 µg/mL (palatine mucosa of frog [2]; 5 min, 5 min after applied): 12.3 ± 8.5%
activation at 0.1 µg/mL (palatine mucosa of frog [2]; 5 min, 5 min after applied): 3 ± 7.6%
activation at 100 µg/mL (palatine mucosa of frog [2]; 10 min, 10 min after applied): 31 ± 24.9%
activation at 10 µg/mL (palatine mucosa of frog [2]; 10 min, 10 min after applied): 18.8 ± 21.1%
activation at 1 µg/mL (palatine mucosa of frog [2]; 10 min, 10 min after applied): 19.9 ± 16.8%
activation at 0.1 µg/mL (palatine mucosa of frog [2]; 10 min, 10 min after applied): 3.8 ± 15.5%
activation at 100 µg/mL (palatine mucosa of frog [2]; 0.25 h, 15 min after applied): 30.5 ± 19.5%
activation at 10 µg/mL (palatine mucosa of frog [2]; 0.25 h, 15 min after applied): 24.9 ± 25.6%
activation at 1 µg/mL (palatine mucosa of frog [2]; 0.25 h, 15 min after applied): 13.9 ± 20.5%
activation at 0.1 µg/mL (palatine mucosa of frog [2]; 0.25 h, 15 min after applied): -5.5 ± 10%
Movement (palatine mucosa of frog [1]; 10^-4 g/ml, frog number 1): 21.0 s/cm
Movement (palatine mucosa of frog [1]; 10^-4 g/ml, frog number 2): 21.7 s/cm
Movement (palatine mucosa of frog [1]; 10^-4 g/ml, frog number 3): 20.7 s/cm
Movement (palatine mucosa of frog [1]; 10^-5 g/ml, frog number 1): 27.0 s/cm
Movement (palatine mucosa of frog [1]; 10^-5 g/ml, frog number 2): 29.7 s/cm
Movement (palatine mucosa of frog [1]; 10^-5 g/ml, frog number 3): 26.3 s/cm
activation at 100 µg/mL (palatine mucosa of frog [1]; read-out: Acceleration, 10^-4 g/ml, frog number 1): 53.3%
activation at 100 µg/mL (palatine mucosa of frog [1]; read-out: Acceleration, 10^-4 g/ml, frog number 2): 41.4%
activation at 100 µg/mL (palatine mucosa of frog [1]; read-out: Acceleration, 10^-4 g/ml, frog number 3): 47.3%
activation at 10 µg/mL (palatine mucosa of frog [1]; read-out: Acceleration, 10^-5 g/ml, frog number 1): 40%
activation at 10 µg/mL (palatine mucosa of frog [1]; read-out: Acceleration, 10^-5 g/ml, frog number 2): 19.7%
activation at 10 µg/mL (palatine mucosa of frog [1]; read-out: Acceleration, 10^-5 g/ml, frog number 3): 33.1%
Time of speed peak of rotary motion after application ([3]; 3×10^-3 mg/ml): ~5 min
Time of speed peak of rotary motion after application ([3]; 10^-3 mg/ml): about 10 minutes
Effect on speed of rotary motion of the cilium cells ([3]; 10^-3 mg/ml and 3×10^-3 mg/ml): the speed of rotary motion of the cilium cells is increased
Time after application at which rotary motion stopped ([3]; 10^-3 and 3×10^-3 mg/ml, both cases): 13 min
activation at 10 µg/mL (ciliated cell; 5 min, 5 min after perfusion): 58.1 ± 38.1%
activation at 1 µg/mL (ciliated cell; 5 min, 5 min after perfusion): 27.8 ± 12.2%
activation at 0.1 µg/mL (ciliated cell; 5 min, 5 min after perfusion): -1.7%
activation at 10 µg/mL (ciliated cell; 10 min, 10 min after perfusion): 52 ± 32.6%
activation at 1 µg/mL (ciliated cell; 10 min, 10 min after perfusion): 10.6 ± 15%
activation at 0.1 µg/mL (ciliated cell; 10 min, 10 min after perfusion): 0.8%
activation at 10 µg/mL (ciliated cell; 0.25 h, 15 min after perfusion): 44.5 ± 22%
activation at 1 µg/mL (ciliated cell; 0.25 h, 15 min after perfusion): 20.8 ± 26.4%
activation at 0.1 µg/mL (ciliated cell; 0.25 h, 15 min after perfusion): 14.6%
Effect on rotation (ciliated cell; between 10^-3 and 10^-2 mg/ml): increase in the rotation in a certan dependency on the dose

CC(C)(C)NCC(O)c1cc(O)cc(O)c1 (stereo not shown) [terbutaline, 5-[2-[(1.1-dimetylethyl)amino]-1-hydoxyethyl]-1,3-benzenediole]
Effect on rotary motion of the cilium cells ([3]; 10^-3 to 3×10^-2 mg/ml): the rotary motion of the cilium cells is increased
Effect on rotary motion, time dependence ([3]; 5 minutes after application, 10^-3 to 3×10^-2 mg/ml): particularly remarkable 5 minutes after the application
Effect on rotation (ciliated cell; 10^-4 to 10^- mg/ml (so in the source)): general tendency of increase of the rotation
activation at 10 µg/mL (ciliated cell; 5 min, 5 min after perfusion): 18.6 ± 0.3%
activation at 1 µg/mL (ciliated cell; 5 min, 5 min after perfusion): 51.2 ± 36%
activation at 0.1 µg/mL (ciliated cell; 5 min, 5 min after perfusion): -5.2 ± 12.2%
activation at 10 µg/mL (ciliated cell; 10 min, 10 min after perfusion): 24.8 ± 3.5%
activation at 1 µg/mL (ciliated cell; 10 min, 10 min after perfusion): 37.2 ± 35.5%
activation at 0.1 µg/mL (ciliated cell; 10 min, 10 min after perfusion): 1.6 ± 4.6%
activation at 10 µg/mL (ciliated cell; 0.25 h, 15 min after perfusion): 2.7 ± 7.4%
activation at 1 µg/mL (ciliated cell; 0.25 h, 15 min after perfusion): 42.1 ± 32.8%
activation at 0.1 µg/mL (ciliated cell; 0.25 h, 15 min after perfusion): 6.7 ± 3%
